The values that follow come from BindingDB's records for doi:10.1021/acs.jmedchem.8b01596 (China Pharmaceutical University, 2019).

The experiment addresses Hypoxia-inducible factor 1-alpha (Homo sapiens, UniProt Q16665). Nature of the experiment: Inhibition of HIF-1alpha in human HeLa cells after 6 hrs by luciferase reporter gene assay. On the technique in general: A reporter such as luciferase makes a cellular process visible.

Chain of Hypoxia-inducible factor 1-alpha (Q16665 whole entry): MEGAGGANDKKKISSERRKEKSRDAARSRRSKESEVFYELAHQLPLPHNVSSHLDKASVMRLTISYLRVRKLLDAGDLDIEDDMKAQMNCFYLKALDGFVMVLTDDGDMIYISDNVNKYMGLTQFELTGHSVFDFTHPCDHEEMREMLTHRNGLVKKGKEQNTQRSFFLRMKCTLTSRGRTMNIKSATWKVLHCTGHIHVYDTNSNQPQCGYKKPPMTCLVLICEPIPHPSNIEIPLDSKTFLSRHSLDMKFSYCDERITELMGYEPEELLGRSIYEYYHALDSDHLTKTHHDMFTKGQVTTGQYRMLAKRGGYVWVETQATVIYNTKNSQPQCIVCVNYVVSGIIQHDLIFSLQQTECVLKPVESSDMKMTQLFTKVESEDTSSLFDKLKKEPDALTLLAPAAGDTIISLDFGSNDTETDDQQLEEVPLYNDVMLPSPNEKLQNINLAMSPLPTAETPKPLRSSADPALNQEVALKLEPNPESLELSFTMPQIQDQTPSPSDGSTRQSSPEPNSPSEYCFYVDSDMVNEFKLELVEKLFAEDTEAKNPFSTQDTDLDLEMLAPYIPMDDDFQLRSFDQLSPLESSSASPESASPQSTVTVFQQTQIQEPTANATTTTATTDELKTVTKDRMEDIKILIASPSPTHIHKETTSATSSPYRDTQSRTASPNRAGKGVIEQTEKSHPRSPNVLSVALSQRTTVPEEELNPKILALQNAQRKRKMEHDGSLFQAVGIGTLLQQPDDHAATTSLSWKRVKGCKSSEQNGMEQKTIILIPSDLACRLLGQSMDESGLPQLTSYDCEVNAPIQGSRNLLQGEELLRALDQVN

With `Cc1ccc(C(=O)COC(=O)c2cccc(NC(=O)c3ccc([N+](=O)[O-])cc3[N+](=O)[O-])c2)cc1` [3-[[(2,4-dinitrophenyl)-oxomethyl]amino]benzoic acid [2-(4-methylphenyl)-2-oxoethyl] ester], it took 2600 nM to reach half-maximal inhibition (IC50).
